In brackets after ≈: the same amount, converted by molar mass. Where two headings read alike, the source gives them in different places.
Tests used:
[1] = tested on: Staphylococcus aureus (methicillin resistant, MB5393, COL); assay: microbe, parasite or virus in culture; assay type: cell-based; settings: MRSA, 22 h, read-out: MRSA COL MITC95 μM
Experimental: Inhibition of Staphylococcus aureus (methicillin resistant, MB5393, COL) growth was assessed in cation adjusted Mueller Hinton II broth (CAMHB) in 384-well microtiter plates. Bacteria were dispensed into microtiter plates at approximately 5×10^5 actively growing cells in 49 μL volumes per well. Cells were exposed to 2-fold serial dilutions of compounds from 200 μM to 0.195 μM and growth compared to drug-free control. Compound dilutions were prepared in 100% dimethylsulfoxide and added to microtiter plates in 1 μL volumes per well. Full growth control wells contained dimethylsufoxide and bacteria. No growth control wells contained dimethysulfoxide and CAMHB but no bacteria. Growth inhibition was assessed after a 22-hour growth period by measuring optical density using a spectrophotometer. The lowest concentration of test compound required to inhibit 95% of the growth of the bacteria was defined as the MITC95. All studies were done in a BSL2 facility.

[2] = tested on: mitochondrial protein synthesis in HepG2 cells (COX-I / SDH-A); assay: Mitochondrial protein synthesis assay; assay type: cell-based; settings: Homo sapiens, 96 h; HepG2 cells, 4 days, ratio of COX-1 to SDH-A levels; read-out: MPS IC50_μM
Experimental: (§1) Inhibition of mitochondrial protein synthesis was assessed in HepG2 cells by comparing the levels of two subunits of oxidative phosphorylation enzyme complexes, subunit I of Complex IV (COX-I) and the 70 kDa subunit of Complex II (SDH-A). COX-I is mitochondrial DNA encoded and SDH-A is nuclear DNA encoded. HepG2 cells were seeded in 96-well collagen coated plates at 8,000 cells per well and exposed to 2-fold serial dilutions of compounds from 100 LM to 6.25 μM. Microtiter plates were incubated for approximately 5 replication cycles (4 days) prior to assessment of protein levels using a kit as described by the manufacturer (ab 110217 MitoBiogenesis In Cell ELISA Kit, Abcam, Cambridge, Mass.). Inhibition of mitochondrial protein synthesis was expressed as a ratio of COX-1 to SDH-A levels.
as §1, with “μM” for “LM”

[3] = tested on: Mycobacterium tuberculosis (Mtb); assay: microbe, parasite or virus in culture; assay type: cell-based, Mycobacterium tuberculosis H37Rv (Mtb-GFP); settings: 168 h
[4] = pH 6.8, read-out: Mtb Cho MITC95_μM
[5] = pH 6.8, read-out: Mtb Glu MITC95_μM

SMILES | MIC [1] [µM] | IC50 [2] [µM] | MIC [3, 4] [µM] | MIC [3, 5] [µM]
COC(=O)NC[C@H]1CN(c2ccc(-c3ccc(SC)cc3)c(F)c2)C(=O)O1 [Example 62, (S)-methyl ((3-(2-fluoro-4′-(methylthio)-[1,1′-biphenyl]-4-yl)-2-oxooxazolidin-5-yl)methyl)carbamate] | 200 (≈ 78.1 µg/mL) | 10 | 0.04 (≈ 0.0156 µg/mL) | 0.04 (≈ 0.0156 µg/mL)
CSc1ccc(-c2ccc(N3C[C@H](COc4ccon4)OC3=O)cc2F)cc1 [Example 49, (R)-3-(2-fluoro-4′-(methylthio)-[1,1′-biphenyl]-4-yl)-5-((isoxazol-3-yloxy)methyl)oxazolidin-2-one] | 200 (≈ 80.1 µg/mL) | > 20 | 0.58 (≈ 0.232 µg/mL) | 0.58 (≈ 0.232 µg/mL)
O=C1O[C@@H](Cn2ccnn2)CN1c1ccc(-c2ccc(N3CCNCC3)nc2)c(F)c1 [Example 54, (R)-5-((1H-1,2,3-triazol-1-yl)methyl)-3-(3-fluoro-4-(6-(piperazin-1-yl)pyridin-3-yl)phenyl)oxazolidin-2-one] | 2.34 (≈ 0.991 µg/mL) | > 20 | 0.215 (≈ 0.091 µg/mL) | 0.24 (≈ 0.102 µg/mL)
NC[C@H]1CN(c2ccc(-c3ccnc4[nH]ccc34)c(F)c2)C(=O)O1 [Example 31, (5S)-5-(aminomethyl)-3-[3-fluoro-4-(1H-pyrrolo[2,3-b]pyridin-4-yl)phenyl]-1,3-oxazolidin-2-one] | 200 (≈ 65.3 µg/mL) | > 20 | 0.78 (≈ 0.255 µg/mL) | 0.39 (≈ 0.127 µg/mL)
CSc1ccc(-c2ccc(N3C[C@H](Cn4cccn4)OC3=O)cc2F)cc1 [Example 46, (5R)-3-[2-fluoro-4′-(methylsulfanyl)biphenyl-4-yl]-5-(1H-pyrazol-1-ylmethyl)-1,3-oxazolidin-2-one] | 200 (≈ 76.7 µg/mL) | > 20 | 0.29 (≈ 0.111 µg/mL) | 0.585 (≈ 0.224 µg/mL)
CC(C)(O)c1ncc(-c2ccc(N3C[C@H](CN)OC3=O)cc2F)s1 [Example 23, (5S)-5-(aminomethyl)-3-{3-fluoro-4-[2-(1-hydroxy-1-methylethyl)-1,3-thiazol-5-yl]phenyl}-1,3-oxazolidin-2-one] | 200 (≈ 70.3 µg/mL) | > 20 | 0.19 (≈ 0.0668 µg/mL) | 0.19 (≈ 0.0668 µg/mL)
NC[C@H]1CN(c2ccc(-c3ccn[nH]3)c(F)c2)C(=O)O1 [Example 16, (5S)-5-(aminomethyl)-3-[3-fluoro-4-(1H-pyrazol-5-yl)phenyl]-1,3-oxazolidin-2-one] | 200 (≈ 55.3 µg/mL) | > 20 | 0.39 (≈ 0.108 µg/mL) | 0.19 (≈ 0.0525 µg/mL)
NC[C@H]1CN(c2ccc(-c3ccc4nncn4c3)c(F)c2)C(=O)O1 [Example 9, (5S)-5-(aminomethyl)-3-(3-fluoro-4-[1,2,4]triazolo[4,3-a]pyridin-6-ylphenyl)-1,3-oxazolidin-2-one] | 200 (≈ 65.5 µg/mL) | > 20 | 0.14 (≈ 0.0458 µg/mL) | 0.09 (≈ 0.0295 µg/mL)
NC[C@H]1CN(c2ccc(-c3cccc(C(N)=O)c3)c(F)c2)C(=O)O1 [Example 10, 4′-[(5S)-5-(aminomethyl)-2-oxo-1,3-oxazolidin-3-yl]-2′-fluorobiphenyl-3-carboxamide] | 200 (≈ 65.9 µg/mL) | > 20 | 0.09 (≈ 0.0296 µg/mL) | 0.09 (≈ 0.0296 µg/mL)
NC[C@H]1CN(c2ccc(-c3ccccc3)c(F)c2)C(=O)O1 [Example 39, (5S)-5-(aminomethyl)-3-(2-fluorobiphenyl-4-yl)-1,3-oxazolidin-2-one] | 200 (≈ 57.3 µg/mL) | > 20 | 0.78 (≈ 0.223 µg/mL) | 0.585 (≈ 0.167 µg/mL)
NC[C@H]1CN(c2ccc(-c3cnn4ncccc34)c(F)c2)C(=O)O1 [Example 38, (5S)-5-(aminomethyl)-3-(3-fluoro-4-pyrazolo[1,5-b]pyridazin-3-ylphenyl)-1,3-oxazolidin-2-one] | 200 (≈ 65.5 µg/mL) | > 20 | 0.39 (≈ 0.128 µg/mL) | 0.14 (≈ 0.0458 µg/mL)
NC[C@H]1CN(c2ccc(-c3ccn4ncnc4c3)c(F)c2)C(=O)O1 [Example 8, (5S)-5-(aminomethyl)-3-(3-fluoro-4-[1,2,4]triazolo[1,5-a]pyridin-7-ylphenyl)-1,3-oxazolidin-2-one] | 200 (≈ 65.5 µg/mL) | > 20 | 0.04 (≈ 0.0131 µg/mL) | 0.04 (≈ 0.0131 µg/mL)

From US10947205B2, “Oxazolidinone compounds and methods of use thereof as antibacterial agents” (priority 2015, dated 2021)
